From the supplement of paper PMC4862054

Assays:
Conditions in all cases: 72 h
[1] = system: MDA-MB-468
Protocol: (§1)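 Drug sensitivity and resistance testing (DSRT) of breast cancer cell lines in 384-well plates, 5 concentrations in 10-fold dilutions over a compound-specific 10,000-fold range. After 72 h, cytotoxicity was read by CellTox Green fluorescence and viability by CellTiter-Glo luminescence (multiplexed), normalised to DMSO and benzethonium chloride controls. EC50 is the inflection point of the fitted dose-response curve (bottom asymptote free, so it can be relative for partial curves) and is censored at the highest tested concentration. Rows with DSS 0 (no meaningful response) were excluded.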

[2] = system: CAL-51
Protocol: as §1

[3] = system: MDA-MB-436
Protocol: as §1

[4] = system: MDA-MB-231
Protocol: as §1

[5] = system: SK-BR-3
Outline: (§2)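 For viability and cell death testing, 384-well plates carried compound at 5 concentrations in 10-fold steps over a compound-specific 10,000-fold range, and breast cancer cell lines were seeded in 20 µl suspension. After 72 h incubation, cell death was read by CellTox Green fluorescence (485/520 nm) before viability was read by CellTiter-Glo luminescence. EC50 was fitted from the dose-response curves and censored at the top concentration. Normalisation on each plate was to 0.1 % DMSO and a positive kill control.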

[6] = system: HCC1143
Outline: as §2

[7] = system: MDA-MB-453
Outline: as §2

[8] = system: CAL-85-1
Outline: as §2

[9] = system: MCF-10A
Outline: as §2

[10] = system: HCC1599
Outline: as §2

[11] = system: CAL-120
Outline: as §2

[12] = system: Hs578T
Outline: (§3)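 After 72 h on 384-well plates pre-loaded with compound in 5 µl medium, breast cancer cell lines seeded in 20 µl were assayed for viability with 2.5 µl CellTiter-Blue at 37 °C for 2 h, read at 560/590 nm. Each plate was quality-checked by Z'-factor and normalised to vehicle and a positive kill control. EC50 comes from the fitted percent-inhibition dose-response curve, censored at the top concentration, and rows scoring zero for drug sensitivity were left out.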

[13] = system: HCC1143; remark: listed apart in the source
Outline: as §3

[14] = system: HCC1937
Outline: as §3

[15] = system: BT-549
Outline: as §3

[16] = system: HCC1599; remark: listed apart in the source
Outline: as §3

[17] = system: BT-474
Outline: as §3

[18] = system: HDQ-P1
Outline: as §3

[19] = system: CAL-85-1; remark: listed apart in the source
Outline: as §3

[20] = system: Hs578T; remark: listed apart in the source
Protocol: as §1

[21] = system: HDQ-P1; remark: listed apart in the source
Protocol: as §1

[22] = system: MFM-223
Protocol: as §1

[23] = system: HCC1143; remark: listed apart in the source
Protocol: as §1

[24] = system: MDA-MB-453; remark: listed apart in the source
Protocol: as §1

[25] = system: CAL-85-1; remark: listed apart in the source
Protocol: as §1

[26] = system: DU-4475
Protocol: as §1

[27] = system: HCC1937; remark: listed apart in the source
Protocol: as §1

[28] = system: MCF-10A; remark: listed apart in the source
Protocol: as §1

[29] = system: BT-549; remark: listed apart in the source
Protocol: as §1

[30] = system: HCC1599; remark: listed apart in the source
Protocol: as §1

[31] = system: BT-474; remark: listed apart in the source
Protocol: as §1

[32] = system: Hs578T; remark: listed apart in the source
Outline: as §2

[33] = system: MFM-223; remark: listed apart in the source
Outline: as §2

[34] = system: MDA-MB-436; remark: listed apart in the source
Outline: as §2

[35] = system: CAL-148
Outline: as §2

[36] = system: DU-4475; remark: listed apart in the source
Outline: as §2

[37] = system: HCC1937; remark: listed apart in the source
Outline: as §2

[38] = system: MDA-MB-231; remark: listed apart in the source
Outline: as §2

[39] = system: CAL-51; remark: listed apart in the source
Outline: as §2

[40] = system: BT-549; remark: listed apart in the source
Outline: as §2

[41] = system: MDA-MB-453; remark: listed apart in the source
Outline: as §3

[42] = system: MFM-223; remark: listed apart in the source
Outline: as §3

[43] = system: MDA-MB-468; remark: listed apart in the source
Outline: as §3

[44] = system: DU-4475; remark: listed apart in the source
Outline: as §3

[45] = system: CAL-51; remark: listed apart in the source
Outline: as §3

[46] = system: CAL-120; remark: listed apart in the source
Protocol: as §1

[47] = system: MDA-MB-436; remark: listed apart in the source
Outline: as §3

[48] = system: CAL-148; remark: listed apart in the source
Outline: as §3

| Compound | EC50, CellTox Green [1] [µM] | EC50, CellTox Green [4] [µM] | EC50, CellTiter-Glo [5] [µM] | EC50, CellTiter-Glo [6] [µM] | EC50, CellTiter-Glo [7] [µM] | EC50, CellTiter-Glo [8] [µM] | EC50, CellTiter-Glo [9] [µM] | EC50, CellTiter-Glo [10] [µM] | EC50, CellTiter-Glo [11] [µM] | EC50, CellTiter-Blue viability [12] [µM] | EC50, CellTiter-Blue viability [13] [µM] | EC50, CellTiter-Blue viability [14] [µM] | EC50, CellTiter-Blue viability [18] [µM] | EC50, CellTiter-Blue viability [19] [µM] | EC50, CellTiter-Glo [32] [µM] | EC50, CellTiter-Glo [33] [µM] | EC50, CellTiter-Glo [34] [µM] | EC50, CellTiter-Glo [35] [µM] | EC50, CellTiter-Glo [36] [µM] | EC50, CellTiter-Glo [38] [µM] | further results |
| --- | --- | --- | --- | --- | --- | --- | --- | --- | --- | --- | --- | --- | --- | --- | --- | --- | --- | --- | --- | --- | --- |
| C[C@]12CC[C@@H]3c4ccc(OC(=O)N(CCCl)CCCl)cc4CC[C@H]3[C@@H]1CC[C@@H]2O [Estramustine] | 4.99 |  |  |  |  |  |  |  |  |  |  |  |  |  |  |  |  |  |  |  | EC50, CellTox Green [2]: 0.131 µM |
| C[C@]1(O)C[C@@H](c2nc(-c3ccc4ccc(-c5ccccc5)nc4c3)c3c(N)nccn32)C1 [Linsitinib] |  | > 10 | 1.46 | > 10 | 0.892 | 3.55 | 0.645 | 1.94 | 8.04 |  |  |  |  |  |  |  |  |  |  |  | EC50, CellTox Green [3]: 6 µM |
| C[C@]1(O)C[C@@H](c2nc(-c3ccc4ccc(-c5ccccc5)nc4c3)c3c(N)nccn32)C1 [OSI-906] |  |  |  |  |  |  |  |  |  | 1.91 | 0.881 | 9.83 | 0.278 | 7.72 |  |  |  |  |  |  | EC50, CellTiter-Blue viability [15]: 7.1 µM; EC50, CellTiter-Blue viability [16]: 0.204 µM; EC50, CellTiter-Blue viability [17]: 1.68 µM |
| Cc1ccc([N+](=O)[O-])cc1S(=O)(=O)N(C)/N=C/c1cnc2ccc(Br)cn12 [PIK-75] | 0.178 | 0.00639 | 0.0268 | 0.0513 | 0.0986 | 0.0306 | 0.0457 | 0.0872 | 0.0292 |  |  |  |  |  | 0.0354 | 0.0522 | 0.0298 | 0.0211 | 0.0353 | 0.0276 | EC50, CellTox Green [20]: 0.042 µM; EC50, CellTox Green [21]: 0.105 µM; EC50, CellTox Green [22]: 0.582 µM; EC50, CellTox Green [23]: 0.182 µM; EC50, CellTox Green [24]: 0.597 µM; EC50, CellTox Green [25]: 0.0316 µM; EC50, CellTox Green [26]: 0.0238 µM; EC50, CellTox Green [27]: 6.4 µM; EC50, CellTox Green [2]: 0.00621 µM; EC50, CellTox Green [28]: 0.0166 µM; EC50, CellTox Green [29]: 0.274 µM; EC50, CellTox Green [30]: 0.0339 µM; EC50, CellTox Green [31]: 0.161 µM; EC50, CellTiter-Glo [37]: 0.0485 µM; EC50, CellTiter-Glo [39]: 0.0213 µM; EC50, CellTiter-Glo [40]: 0.039 µM |
| CC(=O)c1c(C)c2cnc(Nc3ccc(N4CCNCC4)cn3)nc2n(C2CCCC2)c1=O [Palbociclib] |  |  | 2.24 |  |  |  | 1.02 |  | 0.409 |  |  |  |  |  | > 10 | 0.0869 |  |  |  |  | EC50, CellTiter-Glo [39]: > 10 µM |
| CC[C@@H]1C(=O)OC[C@@H]1Cc1cncn1C [Pilocarpine] |  |  |  |  |  |  |  |  |  |  |  |  |  |  |  |  |  |  |  |  | EC50, CellTiter-Blue viability [41]: 38.3 µM |
| COc1cc(F)c(F)c(Nc2ccc(I)cc2F)c1NS(=O)(=O)C1(C[C@H](O)CO)CC1 [RDEA119] |  |  |  |  |  |  |  |  |  | 0.081 | 0.159 | 1.31 | 0.318 | 0.557 |  |  |  |  |  |  | EC50, CellTiter-Blue viability [42]: 2.87 µM; EC50, CellTiter-Blue viability [43]: 7.18 µM; EC50, CellTiter-Blue viability [41]: 4.26 µM; EC50, CellTiter-Blue viability [44]: 0.0426 µM; EC50, CellTiter-Blue viability [45]: 0.196 µM |
| COc1cc(F)c(F)c(Nc2ccc(I)cc2F)c1NS(=O)(=O)C1(C[C@H](O)CO)CC1 [Refametinib] | 2.69 | 0.0232 |  | 1.62 |  | 0.84 | 0.00698 |  | 0.315 |  |  |  |  |  | 6.15 | 6.03 | 6.63 | 6.68 | 0.0636 | 0.429 | EC50, CellTox Green [25]: 0.788 µM; EC50, CellTox Green [26]: 0.11 µM; EC50, CellTox Green [46]: > 10 µM; EC50, CellTiter-Glo [37]: 5.05 µM; EC50, CellTiter-Glo [40]: 2.21 µM |
| CC(C)(C)c1cnc(CSc2cnc(NC(=O)C3CCNCC3)s2)o1 [SNS-032] | 7.58 | 0.0309 | 0.0614 | 0.0465 | 0.0411 | 0.0628 | 0.157 | 0.233 | 0.102 | 0.101 | 0.206 | 0.0797 | 0.11 | 0.128 | 0.101 | 0.137 | 0.0468 | 0.0332 | 0.203 | 0.0541 | EC50, CellTiter-Blue viability [42]: 0.169 µM; EC50, CellTiter-Blue viability [47]: 0.376 µM; EC50, CellTiter-Blue viability [43]: 0.353 µM; EC50, CellTiter-Blue viability [15]: 0.249 µM; EC50, CellTiter-Blue viability [16]: 0.15 µM; EC50, CellTiter-Blue viability [17]: 0.168 µM; EC50, CellTox Green [20]: 0.0858 µM; EC50, CellTox Green [21]: 0.0322 µM; EC50, CellTox Green [22]: 0.142 µM; EC50, CellTox Green [25]: 0.0412 µM; EC50, CellTox Green [2]: 0.0111 µM; EC50, CellTox Green [28]: 0.172 µM; EC50, CellTox Green [29]: 0.255 µM; EC50, CellTiter-Blue viability [41]: 0.125 µM; EC50, CellTiter-Blue viability [48]: 0.128 µM; EC50, CellTiter-Blue viability [44]: 0.203 µM; EC50, CellTiter-Blue viability [45]: 0.571 µM; EC50, CellTiter-Glo [37]: 0.0878 µM; EC50, CellTiter-Glo [39]: 0.0171 µM; EC50, CellTiter-Glo [40]: 0.0419 µM |
| Cn1cnc2c(F)c(Nc3ccc(Br)cc3Cl)c(C(=O)NOCCO)cc21 [Selumetinib] | 2.46 | 0.724 |  |  |  |  | 0.0204 | 1.67 | 9.28 | > 10 | 0.023 | 1.07 | 0.159 | 0.563 |  |  |  |  | 0.21 | 0.313 | EC50, CellTiter-Blue viability [16]: 0.283 µM; EC50, CellTox Green [21]: 0.324 µM; EC50, CellTox Green [26]: 0.172 µM; EC50, CellTiter-Blue viability [44]: 0.0708 µM |
| Nc1nc2[nH]cnc2c(=S)[nH]1 [Thioguanine] |  |  |  | 4.32 | 4.69 | 0.841 |  | 3.45 | 1.32 | 6.56 |  | 6.66 |  | 1.35 | 1.35 |  | 4.73 | 1.72 | 4.33 | 0.491 | EC50, CellTiter-Blue viability [47]: 0.667 µM; EC50, CellTiter-Blue viability [43]: 0.748 µM; EC50, CellTiter-Blue viability [15]: 9.86 µM; EC50, CellTiter-Blue viability [48]: 6.6 µM; EC50, CellTiter-Blue viability [45]: > 10 µM; EC50, CellTiter-Glo [37]: 0.729 µM; EC50, CellTiter-Glo [39]: 2.31 µM; EC50, CellTiter-Glo [40]: 9.55 µM |
